Data reported in PMC6543911, “Discovery of Coumarin as Microtubule Affinity-Regulating Kinase 4 Inhibitor That Sensitize Hepatocellular Carcinoma to Paclitaxel” (Frontiers in Chemistry, 2019).

Target: T1, MARK4 catalytic domain (Homo sapiens, UniProt Q96L34)
T1 construct: The recombinant MARK4 catalytic domain was used as kinase; made in house; host or cells: E. coli BL21 (DE3)
Assay: Kinase activity assay (ADP-Glo) using MARK4 as enzyme
Format: biochemical
Conditions: MARK4 5 nM, 100 μM ATP, 5 μM MAP4, 30 min; duplicate, means ± SEM
Experimental: MARK4 catalytic domain sequence was subcloned into pET-28a vector. Protein expression in E. coli. BL21 (DE3) was induced by IPTG overnight at 16°C, and the cells were then pelleted by centrifugation at 4,000 rpm for 15 min and resuspended in 20 mL buffer (20 mM Tris-HCl, 150 mM NaCl, 25 mM imidazole pH 8.0). Proteins were purified by nickel-affinity chromatography followed by thrombin cleavage. The proteins were further purified by size-exclusion chromatography using a Superdex 75 column (GE Healthcare).
The kinase activity of MARK4 was measured via ADP-Glo™ kinase assay kit (Promega, USA) under manufacturer's instruction. The recombinant MARK4 catalytic domain was used as kinase. MARK4 (5 nM) activity was tested in a reaction (10 μL) containing 25 mM Tris (pH 7.6), 10 mM MgCl2, 150 mM NaCl, 1 mM EDTA, 1 mM DTT, 100 μM ATP, 5 μM MAP4 and varied concentrations of samples for 30 min. The reaction progress was monitored on Thermo Scientific Varioskan Flash Multimode Reader. Each data point was collected in duplicate and kinetic parameters were obtained using GraphPad Prism v6.0 software.

T1 sequence (Q96L34 59-310 limits assumed): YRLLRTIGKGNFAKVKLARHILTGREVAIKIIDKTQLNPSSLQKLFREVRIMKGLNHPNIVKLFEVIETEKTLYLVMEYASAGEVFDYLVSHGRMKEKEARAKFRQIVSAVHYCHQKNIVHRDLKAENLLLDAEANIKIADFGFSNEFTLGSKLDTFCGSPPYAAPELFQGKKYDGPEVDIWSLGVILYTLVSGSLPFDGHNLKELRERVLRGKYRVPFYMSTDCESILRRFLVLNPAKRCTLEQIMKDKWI

SMILES	IC50
CCOc1cccc2ccc(=O)oc12 [Compound 7]	> 50 µM
COc1ccc(-c2cc3cc(Br)cc(OC)c3oc2=O)cc1 [Compound 34]	> 50 µM
COc1cc(OC)c2c(C)cc(=O)oc2c1 [Compound 58]	> 50 µM
COc1cccc2cc(-c3ccc(Cl)cc3)c(=O)oc12 [Compound 16]	> 50 µM
O=c1cc(O)c2ccccc2o1 [Compound 62]	> 50 µM
COc1cccc2ccc(=O)oc12 [Compound 1]	> 50 µM
COc1cccc2cc(-c3ccc(F)cc3)c(=O)oc12 [Compound 17]	> 50 µM
COc1ccc(-c2cc3ccccc3oc2=O)cc1OC [Compound 28]	> 50 µM
O=c1cc(OCc2ccccc2)c2ccccc2o1 [Compound 63]	> 50 µM
Cc1cc(=O)oc2cc(OCc3ccccc3)cc(OCc3ccccc3)c12 [Compound 59]	> 50 µM
COc1ccc(OC)c(-c2cc3cc(Br)cc(OC)c3oc2=O)c1 [Compound 43]	> 50 µM
Cc1cc(=O)oc2cc(O)cc(O)c12 [Compound 56]	> 50 µM
O=c1sc2ccccc2cc1-c1ccccc1 [Compound 65]	36.1 ± 1.65 µM
O=c1cc(-c2ccccc2)c2c(OCc3ccccc3)cc(OCc3ccccc3)cc2o1 [Compound 61]	> 50 µM
O=c1oc2ccccc2cc1-c1ccc(F)cc1 [Compound 32]	37.7 ± 6.07 µM
COc1cc(Br)cc2cc(-c3cccc(OC(C)=O)c3)c(=O)oc12 [Compound 41]	> 50 µM
O=c1ccc2ccccc2o1 [Compound 4]	41 ± 5.4 µM
CC(C)(C)c1cc(C(C)(C)C)c2oc(=O)ccc2c1 [Compound 9]	> 50 µM
O=c1ccc2cc(Cl)ccc2o1 [Compound 2]	> 50 µM
COc1cc(OC)c2c(-c3ccccc3)cc(=O)oc2c1 [Compound 60]	> 50 µM

SMILES	IC50
COc1cc(Br)cc2cc(-c3cccc(O)c3)c(=O)oc12 [Compound 45]	> 50 µM
O=c1ccc2cc(Cl)cc(Cl)c2o1 [Compound 3]	> 50 µM
O=c1oc2c(Cl)cc(Cl)cc2cc1-c1ccccc1 [Compound 27]	42.1 ± 3.99 µM
COc1ccccc1-c1cc2cc(Cl)cc(Cl)c2oc1=O [Compound 26]	> 50 µM
COc1cc(Br)cc2cc(-c3ccc(F)cc3)c(=O)oc12 [Compound 40]	38.8 ± 4.83 µM
COc1cc(Br)cc2cc(-c3ccc(O)cc3)c(=O)oc12 [Compound 46]	> 50 µM
O=c1ccc2cc([N+](=O)[O-])ccc2o1 [Compound 8]	37.9 ± 3.45 µM
O=c1cc(-c2ccccc2)c2c(O)cc(O)cc2o1 [Compound 57]	> 50 µM
COc1ccc(-c2cc3cc(Br)cc(OC)c3oc2=O)cc1OC [Compound 33]	46.3 ± 3.04 µM
COc1ccccc1-c1cc2cc(Cl)ccc2oc1=O [Compound 20]	> 50 µM
COc1cc(-c2cc3cc(Br)cc(OC)c3oc2=O)cc(OC)c1OC [Compound 37]	37.8 ± 5.43 µM
COc1cccc(-c2cc3ccccc3oc2=O)c1 [Compound 30]	39.3 ± 3.12 µM
COc1ccc2c(C)cc(=O)oc2c1 [Compound 55]	> 50 µM
COc1cc(Br)cc2cc(-c3ccccc3)c(=O)oc12 [Compound 38]	40.9 ± 4.04 µM
COc1cc(Br)cc2cc(-c3cccnc3)c(=O)oc12 [Compound 44]	> 50 µM
COc1cc(=O)oc2ccccc12 [Compound 64]	40.4 ± 2.87 µM
COc1cc(Br)cc2cc(-c3ccc(OC(C)=O)cc3)c(=O)oc12 [Compound 42]	> 50 µM
COc1ccc(-c2cc3ccccc3oc2=O)cc1 [Compound 29]	37.4 ± 2.84 µM
Cc1ccc2oc(=O)ccc2c1 [Compound 6]	> 50 µM

More lines, now with the values ahead:

IC50	SMILES
11.1 ± 0.786 µM	COc1ccc(-c2cc3ccccc3sc2=O)cc1OC [Compound 67, 3-(3,4-Dimethoxyphenyl)-2H-thiochromen-2-one]
2.1 ± 0.372 µM	COc1cccc2cc(C(=O)c3ccccc3)c(=O)oc12 [Compound 48]
14.6 ± 2.99 µM	COc1cccc2cc(C(C)=O)c(=O)oc12 [Compound 47]
33.6 ± 2.75 µM	COc1cc(-c2cc3cc(Br)cc(OC)c3oc2=O)c(OC)c(OC)c1OC [Compound 36]
7.76 ± 2.93 µM	COc1cccc(-c2cc3cc(Cl)cc(Cl)c3oc2=O)c1 [Compound 25]
25.1 ± 5.81 µM	COc1ccc2ccc(=O)oc2c1 [Compound 10]
29.7 ± 4.21 µM	COc1ccc(-c2cc3cccc(OC)c3oc2=O)cc1OC [Compound 11]
25.9 ± 2.73 µM	CC(=O)c1cc2ccccc2oc1=O [Compound 51]
12.8 ± 1.25 µM	COc1cccc(-c2cc3cc(Br)cc(OC)c3oc2=O)c1 [Compound 35]
31 ± 2.81 µM	COc1ccc(-c2cc3cc(Cl)ccc3oc2=O)cc1OC [Compound 18]
34.5 ± 3.3 µM	COc1cc(-c2cc3cccc(OC)c3oc2=O)cc(OC)c1OC [Compound 14]
35.6 ± 3.9 µM	COc1ccc(-c2cc3ccccc3sc2=O)cc1 [Compound 66, 3-(4-Methoxyphenyl)-2H-thiochromen-2-one]
31.5 ± 2.28 µM	COc1cccc2cc(-c3ccccc3)c(=O)oc12 [Compound 15]
25 ± 2.4 µM	CC(C)(C)C(=O)c1cc2ccccc2oc1=O [Compound 53]
35 ± 5.78 µM	O=c1oc2ccccc2cc1-c1ccccc1 [Compound 31]
28 ± 2.01 µM	O=c1oc2ccc(Cl)cc2cc1-c1ccc(Cl)cc1 [Compound 22]
4.12 ± 0.605 µM	O=C(c1ccccc1)c1cc2cc(Cl)ccc2oc1=O [Compound 49]
10 ± 3.65 µM	COc1ccc(-c2cc3cc(Cl)cc(Cl)c3oc2=O)cc1 [Compound 24]
17.4 ± 2.69 µM	COc1ccc(-c2cc3cc(Cl)cc(Cl)c3oc2=O)cc1OC [Compound 23]
27 ± 2.38 µM	COc1ccc(-c2cc3cc(Cl)ccc3oc2=O)cc1 [Compound 19]
8.98 ± 2.74 µM	COc1cccc(-c2cc3cccc(OC)c3oc2=O)c1 [Compound 13]
7.8 µM	COc1cccc(-c2cc3cc(Cl)cc(Cl)c3oc2=O)c1 [6,8-dichloro-3-(3-methoxyphenyl)-2H-chromen-2-one]
22.8 ± 4.61 µM	COc1ccc(-c2cc3cccc(OC)c3oc2=O)cc1 [Compound 12]
25.5 ± 1.01 µM	COc1cc(-c2cc3cc(Cl)ccc3oc2=O)cc(OC)c1OC [Compound 21]
16.9 ± 4.26 µM	COc1cc(Br)cc2cc(-c3ccc(Cl)cc3)c(=O)oc12 [Compound 39]
32.2 ± 2.75 µM	O=c1sc2ccccc2cc1-c1ccc(F)cc1 [Compound 68, 3-(4-Fluorophenyl)-2H-thiochromen-2-one]
21.3 ± 2 µM	O=C(c1ccccc1)c1cc2c(ccc3ccccc32)oc1=O [Compound 54]
27 ± 3.65 µM	O=C(c1ccccc1)c1cc2ccccc2oc1=O [Compound 52]
35 ± 3.73 µM	COc1ccc2oc(=O)ccc2c1 [Compound 5]

System: HepG2 cells
Assay: Cell viability assay (MTT) in HepG2 cells
Format: cell-based
Conditions: HepG2 cells transiently transfected with MARK4-knockdown vs control vectors
Experimental: HepG2 and SMMC-7721 cells were cultured in DMEM medium (Gibco) supplemented with 10% FBS (Gibco, USA). For transient transfection, cells were transfected with DNA by Lipofectamine 2000 (Thermo fisher, USA).
HCC cells (100 μL/each well, 20,000 cells/mL) were seeded in a 96-well culture plate and allowed to grow for 24 h in DMEM medium supplemented with 10% FBS and 1% penicillin/streptomycin sulfate. The cells were then treated with drugs or vehicle control and incubated in a 5% CO2 incubator for indicated time. At the end of incubation, 10 μL of MTT stock solution (5 mg/mL) was added into each well. The plate was continued to be incubated at 37°C for 4 h before the medium was removed. Then, DMSO (100 μL) was added into each well, followed by thorough shaking. The absorbance of the formazan product was measured at 570 nm on Thermo Scientific Varioskan Flash Multimode Reader. The IC50 value was obtained by fitting dose-response data to a three parametric non-linear regression model using GraphPad Prism 6.0 software.

SMILES	sensitivity in MARK4-knockdown cells
CC(=O)O[C@H]1C(=O)[C@@]2(C)[C@H]([C@H](OC(=O)c3ccccc3)[C@]3(O)C[C@H](OC(=O)[C@H](O)[C@@H](NC(=O)c4ccccc4)c4ccccc4)C(C)=C1C3(C)C)[C@]1(OC(C)=O)CO[C@@H]1C[C@@H]2O [paclitaxel]	increased sensitivity

Same assay, conditions: Homo sapiens; HepG2 cells, MTT

IC50	SMILES
15.9 µM	COc1cccc(-c2cc3cc(Cl)cc(Cl)c3oc2=O)c1 [6,8-dichloro-3-(3-methoxyphenyl)-2H-chromen-2-one]

System: HepG2 cells
Assay: Cell apoptosis assay (Annexin V-FITC/PI flow cytometry) in HepG2 cells
Format: cell-based
Conditions: 2.5 μM alone
Experimental: HCC cells (2 × 10^5 cells/well) were plated in a 6-well plate and treated with samples at 37°C for 36 h. After incubation, the cells were harvested and washed with ice-cold PBS. Annexin V-FITC-PI apoptosis detection kit (Abcam, USA) was used for a direct observation of viable, early apoptotic, and late apoptotic cells. Annexin V-FITC and propidium iodide were added according to the manufacturer's instructions, and the samples were incubated in the dark for 15 min. The apoptosis ratio was analyzed using BD FACSCalibur flow cytometry.

SMILES	apoptosis, single agent
CC(=O)O[C@H]1C(=O)[C@@]2(C)[C@H]([C@H](OC(=O)c3ccccc3)[C@]3(O)C[C@H](OC(=O)[C@H](O)[C@@H](NC(=O)c4ccccc4)c4ccccc4)C(C)=C1C3(C)C)[C@]1(OC(C)=O)CO[C@@H]1C[C@@H]2O [paclitaxel]	unable to trigger distinct apoptosis
